From patent publication US20100331315A1, “RHODANINES AND RELATED HETEROCYCLES AS KINASE INHIBITORS” (priority 2009, published 2010)
Like-named read-outs stand apart in the source and are kept apart here.

Tests used:
K-562 = assay: Alamar Blue cell proliferation assay, K-562; assay type: cell-based; details: Homo sapiens
Summary of the method: (§1)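 Cells were seeded at 4,000-5,000 per well and exposed to compound for four days at 37° C under 5% CO2. Alamar Blue was then added for four hours, and fluorescence was read at 544 nm excitation and 590 nm emission against untreated-cell and medium-only controls.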

[1] = tested on: HCT-116 human colorectal carcinoma cells; assay: Alamar Blue cell proliferation assay, HCT-116; assay type: cell-based; details: HCT-116, Table 1, read-out: AB: HCT-116 IC50
Method: (§2) A representative cell-proliferation assay protocol using Alamar Blue dye (stored at 4° C., use 20 ul per well) is described hereafter.
(§3) a. Split and trypsinize cells.
(§4) b. Count cells using hemocytometer.
(§5) c. Plate 4,000-5,000 cells per well in 100 μl of medium and seed into a 96-well plate according to the following plate layout. Add cell culture medium only to wells B10 to B12. Wells B1 to B9 have cells but no compound added.
(§6) d. Add 100 μl of 2× drug dilution to each well in a concentration shown in the plate layout above. At the same time, add 100 μl of media into the control wells (wells B10 to B12). Total volume is 200 μl/well.
(§7) e. Incubate four (4) days at 37° C., 5% CO2 in a humidified incubator.
(§8) f. Add 20 μl Alamar Blue reagent to each well.
(§9) g. Incubate for four (4) hours at 37° C., 5% CO2 in a humidified incubator.
(§10) h. Record fluorescence at an excitation wavelength of 544 nm and emission wavelength of 590 nm using a microplate reader.
(§11) In the assays, cells are cultured with a test compound for approximately four days, the dye is then added to the cells and fluorescence of […] dye is detected after approximately four hours. Different types of cells can be utilized in the assays (e.g., HCT-116 human colorectal carcinoma cells, PC-3 human prostatic cancer cells and MiaPaca human pancreatic carcinoma cells).

MV-4-11 = assay: Alamar Blue cell proliferation assay, MV-4-11; assay type: cell-based; details: Homo sapiens
Summary of the method: as §1

recombinant human PIM2 = recombinant human PIM2 (Homo sapiens, UniProt Q9P1W9); assay: PIM-2 assay (33P-ATP filter plate); assay type: biochemical; details: Table 5
Chain of recombinant human PIM2 (Q9P1W9 whole entry): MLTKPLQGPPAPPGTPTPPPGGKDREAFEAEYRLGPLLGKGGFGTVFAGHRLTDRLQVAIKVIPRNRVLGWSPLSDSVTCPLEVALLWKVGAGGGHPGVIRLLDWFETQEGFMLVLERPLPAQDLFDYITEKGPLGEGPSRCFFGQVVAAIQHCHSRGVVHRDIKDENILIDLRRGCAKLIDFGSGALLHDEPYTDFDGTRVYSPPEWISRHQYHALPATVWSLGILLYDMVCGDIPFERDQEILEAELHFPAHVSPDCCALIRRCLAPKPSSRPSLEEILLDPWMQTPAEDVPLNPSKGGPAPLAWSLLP
Method: PIM-2 Assay Method: Test compounds dissolved and diluted in DMSO (2 μl) were added to a reaction mixture comprising 10 μl of 5× Reaction Buffer (40 mM MOPS pH 7.0, 5 mM EDTA), 10 μl of recombinant human PIM2 solution (4 ng PIM-2 dissolved in dilution buffer (20 mM MOPS pH 7.0; EDTA 1 mM; 5% Glycerol; 0.01% Brij 35; […]; […] 2-mercaptoethanol; 1 mg/ml BSA)) and 8 ul of water. Reactions were initiated by the addition of 10 ul of ATP Solution (49% (15 mM MgCl2; 75 uM ATP) 1% ([γ-^33P]ATP: Stock 1 mCi/1000; 3000Ci/mmol (Perkin Elmer)) and 10 ul of substrate peptide solution (RSRSSYPAGT, dissolved in water at a concentration of 1 mM), Reactions were maintained for 10 min at 30° C. The reactions were quenched with 100 ul of 0.75% Phosphoric acid, then transferred to and filtered through a Phosphocellulose filter plate (Millipore, MSPH-N6B-50). After washing each well 4 times with 0.75% Phosphoric acid, scintillation fluid (20 uL) was added to each well and the residual radioactivity was measured using a Wallac luminescence counter.

recombinant PIM-1 = recombinant PIM-1 (Homo sapiens, UniProt P11309); assay: PIM-1 assay (33P-ATP filter plate); assay type: biochemical; details: Table 5; read-out: PIM1: IC50
Chain of recombinant PIM-1 (P11309 whole entry): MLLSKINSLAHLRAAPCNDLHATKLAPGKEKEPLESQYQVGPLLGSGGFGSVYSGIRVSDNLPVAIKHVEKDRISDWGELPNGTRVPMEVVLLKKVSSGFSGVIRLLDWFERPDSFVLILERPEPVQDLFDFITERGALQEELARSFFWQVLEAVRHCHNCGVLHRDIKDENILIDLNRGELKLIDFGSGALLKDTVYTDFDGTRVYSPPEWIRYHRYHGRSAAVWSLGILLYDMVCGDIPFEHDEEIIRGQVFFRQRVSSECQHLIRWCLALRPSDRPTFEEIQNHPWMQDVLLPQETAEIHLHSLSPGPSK
Summary of the method: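 Recombinant PIM-1 (1 ng) with 100 uM KKRNRTLTK, 15 uM ATP plus [γ-33P]ATP, 10 mM Mg acetate in MOPS pH 7.0, 4% DMSO. Reaction 40 min at 23° C, quenched with phosphoric acid; labeled peptide captured on phosphocellulose filter and counted by scintillation.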

recombinant human CK2 = target: T1, recombinant human CK2 (Homo sapiens, UniProt P68400); assay: CK2 assay (cell-free, 33P-ATP filter plate); assay type: biochemical; details: Table 5
T1 construct: purchased Upstate
T1 sequence (P68400 whole entry): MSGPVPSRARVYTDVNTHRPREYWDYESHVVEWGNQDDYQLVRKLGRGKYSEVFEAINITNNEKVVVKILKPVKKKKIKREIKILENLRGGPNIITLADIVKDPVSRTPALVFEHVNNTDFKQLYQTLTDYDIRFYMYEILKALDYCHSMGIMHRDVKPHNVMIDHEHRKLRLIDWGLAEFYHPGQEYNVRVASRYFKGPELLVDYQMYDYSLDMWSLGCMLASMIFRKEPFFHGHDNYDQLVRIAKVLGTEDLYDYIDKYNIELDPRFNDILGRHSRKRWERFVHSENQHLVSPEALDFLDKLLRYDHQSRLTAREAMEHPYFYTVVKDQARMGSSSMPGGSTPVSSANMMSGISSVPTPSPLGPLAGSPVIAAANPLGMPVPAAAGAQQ
T1 sequence (P67870 whole entry partner): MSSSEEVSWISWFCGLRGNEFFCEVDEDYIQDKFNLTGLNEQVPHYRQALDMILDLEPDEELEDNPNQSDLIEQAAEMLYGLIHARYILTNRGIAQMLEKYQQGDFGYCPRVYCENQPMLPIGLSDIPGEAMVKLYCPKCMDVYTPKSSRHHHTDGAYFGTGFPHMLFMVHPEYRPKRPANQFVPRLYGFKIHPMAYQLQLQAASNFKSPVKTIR
Summary of the method: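 Recombinant human CK2 (25 ng) with RRRDDDSDDD peptide in MOPS pH 7.2 buffer; started with ATP/MgCl2 plus [γ-33P]ATP (75 micromolar ATP in stock solution) for 10 minutes at 30 degrees C. Acid-quenched, captured on phosphocellulose filters, and incorporated radioactivity counted by scintillation.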

MDAMB453 = assay: Alamar Blue cell proliferation assay, MDAMB453; assay type: cell-based; details: Homo sapiens, MDA-MB-453, MDAMB453, Table 5, read-out: AB: MDAMB453 IC50
Method: as §2, §3, §4, §5, §6, §7, §8, §9, §10, §11

SUM-149PT = assay: Alamar Blue cell proliferation assay, SUM-149PT; assay type: cell-based; details: Homo sapiens, SUM149PT, Table 5, read-out: AB: SUM-149PT IC50
Method: as §2, §3, §4, §5, §6, §7, §8, §9, §10, §11

BxPC3 = assay: Alamar Blue cell proliferation assay, BxPC3; assay type: cell-based; details: Homo sapiens, BXPC-3, BxPC3, Table 5, read-out: AB: BxPC3 IC50
Method: as §2, §3, §4, §5, §6, §7, §8, §9, §10, §11

[2] = tested on: leukemic cells from AML patients; details: Fedorov et al., PNAS 104(51); cited from earlier work
MV-4-11 (AML) xenograft = MV-4-11 (AML) xenograft model; 2008 AACR Abstract No. 4974; cited from earlier work
MOLM-13 (AML) xenograft = MOLM-13 (AML) xenograft model; 2008 AACR Abstract No. 4974; cited from earlier work
[3] = K562, K-562, Table 5, read-out: AB: K-562 IC50
[4] = MV4-11, MV-4-11, Table 5, read-out: AB: MV-4-11 IC50

| Compound | IC50 (K-562; K562, K-562, Table 1, read-out: AB: K-562 IC50) [nM] | IC50 [1] [nM] | IC50 (MV-4-11; MV4-11, MV-4-11, Table 1, read-out: AB: MV-4-11 IC50) [nM] | IC50 (recombinant human PIM2) [nM] | IC50 (recombinant PIM-1) [nM] | IC50 (K-562; [3]) [nM] | IC50 (recombinant human CK2) [nM] | IC50 (MV-4-11; [4]) [nM] | IC50 (MDAMB453) [nM] | IC50 (SUM-149PT) [nM] | IC50 (BxPC3) [nM] | effect on cell growth and cell death [2] | tumor regression (MV-4-11 (AML) xenograft) | tumor regression (MOLM-13 (AML) xenograft) |
| --- | --- | --- | --- | --- | --- | --- | --- | --- | --- | --- | --- | --- | --- | --- |
| O=C1NC(=S)S/C1=C\c1ccc(-c2cccc(C(=O)O)c2)o1 | > 10000 | > 10000 | > 10000 |  |  |  |  |  |  |  |  |  |  |  |
| CN1C(=O)/C(=C/c2ccc(-c3cccc(C(=O)O)c3)o2)SC1=S |  | > 10000 |  |  |  |  |  |  |  |  |  |  |  |  |
| CN1CCCN(c2cncc(-c3cc(/C=C4\SC(=O)NC4=O)ccc3Cl)n2)CC1 |  |  |  | < 50 | < 50 | > 30000 | 92.1 | 3010 | 18400 | > 30000 | > 30000 |  |  |  |
| Cc1ccc(-c2cncc(N3CCCN(C)CC3)n2)cc1/C=C1\SC(=S)NC1=O |  |  |  | < 50 | < 50 | 9700 | < 50 | 2200 | 22200 | 25700 | 16300 |  |  |  |
| CN1CCCN(c2cncc(-c3cc(/C=C4\SC(=O)NC4=O)ccc3F)n2)CC1 |  |  |  | < 50 | < 50 | 267 | < 50 | 197 | 1180 | 1550 | 6710 |  |  |  |
| O=C1NC(=O)/C(=C\c2ccc(F)c(-c3cncc(N4CCCNCC4)n3)c2)S1 |  |  |  | < 50 | < 50 | 2910 | < 50 | 1020 | 1240 | 2350 | 4360 |  |  |  |
| CN1CCCN(c2cncc(-c3cc(/C=C4\SC(=S)NC4=O)ccc3F)n2)CC1 |  |  |  | 50 | < 50 | 186 | < 50 | 163 | 521 | 315 | 2380 |  |  |  |
| O=C(O)c1cccc(-c2ccc(/C=C3\SC(=S)N(Cc4ccccc4)C3=O)o2)c1 |  | > 10000 |  |  |  |  |  |  |  |  |  |  |  |  |
| Cc1ccc(-c2cncc(N3CCCN(C)CC3)n2)cc1/C=C1\SC(=O)NC1=O |  |  |  | 50 | < 50 | 6540 | 50 | 3750 | 15500 | 8700 | 25800 |  |  |  |
| CN1CCCN(c2cncc(-c3cncc(/C=C4\SC(=O)NC4=O)c3)n2)CC1 |  |  |  | < 50 | < 50 | > 10000 | 10.6 | 9350 | 28300 | > 30000 | > 30000 |  |  |  |
| CN(C)C[C@@H]1CCn2cc(c3ccccc32)C2=C(C(=O)NC2=O)c2cn(c3ccccc23)CCO1 [Ly5333′531] |  |  |  |  |  |  |  |  |  |  |  | suppressed cell growth and induced cell death |  |  |
| CN1CCC(CNc2ccc3ncc(-c4cccc(OC(F)(F)F)c4)n3n2)CC1 [SGI-1776] |  |  |  |  |  |  |  |  |  |  |  |  | significant tumor regression | significant tumor regression |
